# Article PMC4492727 (Pharmacology Research & Perspectives, 2015)
# Where two headings read alike, the source gives them in different places.
# Columns and labels:
# [1] = test system: P-gp activity of the murine cell line P388/dx; settings: P388/dx cells; ref Weiss et al. [2010]; cited from earlier work
# [2] = test system: MDCK II cells transfected with the human MDR1 gene; settings: 5 μmol/L telmisartan, 30 min preincubation; ref Chang et al. ([2006]); cited from earlier work
# [3] = cited from earlier work
# P-gp = settings: read-out: IC50 as inhibitor of P-gp; ref Weiss et al. [2010]; cited from earlier work
# MDCK II (MDR1) cells [4] = test: Bidirectional transepithelial transport across MDCK II
# MDCK II (MDR1) cells [5] = assay type: in vitro ADME, canine (cells expressing human P-gp); settings: 2.4 μmol/L telmisartan
structure (smiles),measurement,setting,value
CCCc1nc2c(C)cc(-c3nc4ccccc4n3C)cc2n1Cc1ccc(-c2ccccc2C(=O)O)cc1 [telmisartan],"P-gp inhibitory effect, calcein AM uptake",[1],inhibited
same,inhibition of the efflux transport of digoxin,[2],able to inhibit
same,aqueous solubility,[3]; ref Park et al. [2013],0.45 µM
same,aqueous solubility,[3]; ref Tran et al. [2008],0.17 µM
same,IC50,P-gp,380 nM
same,effect on transepithelial efflux of [3H]-verapamil,MDCK II (MDR1) cells [4]; 2.4 μmol/L telmisartan,minor inhibition
same,effect on transepithelial transport of [3H]-digoxin,MDCK II (MDR1) cells [4]; 2.4 μmol/L telmisartan,does not affect
same,effect on verapamil transport in pilot experiments,"MDCK II (MDR1) cells [4]; low concentrations of telmisartan, data not shown",no effects
same,effect on amount of [3H]-digoxin present in cells and filter,MDCK II (MDR1) cells [5],no difference
same,increase in concentration of verapamil in cells compared to untreated control,MDCK II (MDR1) cells [5],~26%
